Test results: ChEMBL document CHEMBL1201862, “PubChem BioAssay data set” (2004)
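Grown in 96-well plates, cells were treated for 48 hours with each compound at five concentrations. Insufficient inhibition: endpoint recorded as highest concentration tested. GI50 = concentration required for 50% inhibition of growth.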 Active and inactive are the calls of the source. Rule as the data show it: active = GI50 up to about 1.1 µM and inactive = higher.

Columns and labels:
Test in all cases: NCI-60 cell line screen, 48 h
PC-3 = tested on: PC-3
TK-10 = tested on: TK-10
EKVX = tested on: EKVX
SR = tested on: SR
K562 = tested on: K562
NCI-H460 = tested on: NCI-H460
HL-60 = tested on: HL-60
IGROV-1 = tested on: IGROV-1
RXF 393 = tested on: RXF 393
U-251 = tested on: U-251
DU-145 = tested on: DU-145
Hs-578T = tested on: Hs-578T
MDA-N = tested on: MDA-N
NCI/ADR-RES = tested on: NCI/ADR-RES
SK-MEL-5 = tested on: SK-MEL-5
HOP-62 = tested on: HOP-62
HT-29 = tested on: HT-29
SNB-78 = tested on: SNB-78
RPMI-8226 = tested on: RPMI-8226
A549 = tested on: A549

SMILES	GI50 (PC-3)	GI50 (TK-10)	GI50 (EKVX)	GI50 (SR)	GI50 (K562)	GI50 (NCI-H460)	GI50 (HL-60)	GI50 (IGROV-1)	GI50 (RXF 393)	GI50 (U-251)	GI50 (DU-145)	GI50 (Hs-578T)	GI50 (MDA-N)	GI50 (NCI/ADR-RES)	GI50 (SK-MEL-5)	GI50 (HOP-62)	GI50 (HT-29)	GI50 (SNB-78)	GI50 (RPMI-8226)	GI50 (A549)
CN/N=C(/CCN1CCCC1)CC(c1ccccc1)c1c(O)c2ccccc2oc1=O (centres undefined)	> 100 µM (inactive)	> 100 µM (inactive)	> 100 µM (inactive)	> 94.6 µM (inactive)	> 100 µM (inactive)	> 100 µM (inactive)	61.5 µM (inactive)	> 100 µM (inactive)	> 100 µM (inactive)	> 100 µM (inactive)	> 100 µM (inactive)	> 100 µM (inactive)	> 100 µM (inactive)	> 100 µM (inactive)	> 75.5 µM (inactive)	> 100 µM (inactive)	> 100 µM (inactive)	> 100 µM (inactive)	25.5 µM (inactive)	> 100 µM (inactive)
NC(=O)c1ncn2c(=O)n(CCCl)nnc12 [MITOZOLOMIDE]	177 µM (inactive)	229 µM (inactive)	197 µM (inactive)	47.3 µM (inactive)	94.4 µM (inactive)	50.2 µM (inactive)	30.8 µM (inactive)	132 µM (inactive)	160 µM (inactive)	40.4 µM (inactive)	123 µM (inactive)	208 µM (inactive)	137 µM (inactive)	168 µM (inactive)	156 µM (inactive)	29.5 µM (inactive)	156 µM (inactive)	185 µM (inactive)	229 µM (inactive)	180 µM (inactive)
Cc1cc(N(CCC#N)CCC#N)ccc1/C=C1N=C(/C=C\c2ccccc2)N(c2ccc(Cl)cc2)C\1=O	0.536 µM (active)	> 53.3 µM (inactive)	> 100 µM (inactive)	> 100 µM (inactive)	0.607 µM (active)	10.8 µM (inactive)	6.05 µM (inactive)	47.3 µM (inactive)	> 100 µM (inactive)	> 28.6 µM (inactive)	> 100 µM (inactive)	> 100 µM (inactive)	> 100 µM (inactive)	> 100 µM (inactive)	0.43 µM (active)	5.21 µM (inactive)	2.11 µM (inactive)	> 100 µM (inactive)	–	> 39.9 µM (inactive)
